# Laboratory results as given in patent US10800816B2 (Baxalta GmbH, priority 2012, dated 2020).
# Where a SMILES comes first, the peptide text is derived from it. Bridges are numbered along the chain shown (N, C = ends). [ ]: non-standard residue; d: D form. Tle = CC(C)(C)[C@H](N)C(=O)O; hCys = N[C@@H](CCS)C(=O)O; Aib = CC(C)(N)C(=O)O
# How the values were obtained:
# TFPI = test: FXa inhibition assay (human TFPI); conditions: read-out: FXa Inhibition Assay EC50; Table 7 and text b402
# human TFPI-1 = biological target: T1, human TFPI-1 (Homo sapiens, UniProt P10646); test: BIAcore surface plasmon resonance, immobilized human TFPI-1; type: binding; conditions: Table 6
# T1 construct: human TFPI-1 (residues 29-282 fused at the C-terminus to a 10 His-tag); purchased R&D Systems 2974-PI
# T1 sequence (P10646 29-282): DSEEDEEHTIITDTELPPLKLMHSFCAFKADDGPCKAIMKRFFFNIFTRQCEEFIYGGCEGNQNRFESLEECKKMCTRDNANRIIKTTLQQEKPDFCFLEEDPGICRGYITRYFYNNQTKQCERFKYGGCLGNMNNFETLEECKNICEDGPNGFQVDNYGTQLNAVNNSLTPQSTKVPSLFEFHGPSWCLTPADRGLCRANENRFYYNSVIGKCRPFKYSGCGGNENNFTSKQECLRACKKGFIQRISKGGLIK
# [1] = system: Tissue Factor Pathway Inhibitor (TFPI); test: IC50 ELISA | IC50 [nM]
# Excerpt: Table printed on a drawing sheet, FIGURE 78U
# Head of the field: IC50 ELISA | IC50 [nM]
# FVIII-deficient mice = test: Puncture-induced hemarthrosis in FVIII-deficient mice; type: in vivo, mouse; conditions: 1 mg/kg i.v.
# Method: After each product administration, the right knee joint capsule was punctured with a 30 gauge needle to induce hemorrhage. Animals were sacrificed three days following injury, and bleeding was assessed via gross and histological methods. […] Summary bleeding scores (SBS), which include visual and histological bleeding scores, were assigned to each joint. […] The results described herein further confirm that peptides of the invention provide a prophylactic or protective effect against bleeding in an in vivo model of hemophilia A.
# [2] = Pharmacokinetics in C57Bl6 mice; type: in vivo, mouse
# [3] = system: FVIII-inhibited whole blood; test: Rotation thromboelastography (ROTEM) in whole blood; design: species or system human; conditions: Hem A / FVIII-inhibited human whole blood
# Method: Continuous visco-elastic assessment of human whole blood clot formation and firmness was performed by rotation thromboelastography with whole blood preparations in the presence or absence of peptides. […] Test samples were prepared by dissolving quantities of peptides in either DMSO or HEPES buffered saline (with or without 0.1% Tween 80).
# Recordings were made using a ROTEM thromboelastography coagulation analyzer (Pentapharm, Munich, Germany) at 37° C. Briefly, blood is added into a disposable cuvette in a heated cuvette holder. A disposable pin (sensor) is fixed on the tip of a rotating axis. The axis is guided by a high precision ball bearing system and rotates back and forth. The axis is connected with a spring for the measurement of elasticity. The exact position of the axis is detected by the reflection of light on a small mirror on the axis. The loss of elasticity when the sample clots leads to a change in the rotation of the axis. The data obtained are computer analyzed and visualized in a thromboelastogram. […] An elasticity of approximately zero is observed before clot formation begins. Mirror image traces above and below the zero line indicate the effect of clot formation on the rotation of the axis.
# The analytical set-up was as follows: to 20 μL of test sample or control, 300 μL of pre-warmed (37° C.) CTI treated citrated whole blood was added, followed by 20 μL of a 1:15 dilution of TF PRP reagent containing recombinant human tissue factor (rTF, 3 pM) (TS40, Thrombinoscope BV, Maastricht, The Netherlands). Coagulation was initiated by the addition of 20 μ200 mM CaCl2 (star-TEM®, Pentapharm, Munich, Germany) and recordings were allowed to proceed for at least 120 min. The final concentration of rTF in the assay was 11 or 44 fM.
# The thromboelastographic parameters of clotting time (CT), clot formation time (CFT) and maximum clot firmness (MCF) were recorded in accordance with the manufacturer's instructions. CT is defined as the time from the start of measurement to the start of clot formation. CFT is defined as the time from the start of clot formation until an amplitude of 20 mm is reached. MCF is the maximum difference in amplitude between the two traces during the assay. The first derivative of the data of the thromboelastogram are plotted to obtain a graph of velocity (mm/s) against time (s). From this graph, the maximum velocity (maxV) is determined. The time at which the maximum velocity is obtained (maxV-t) is also determined.
# This example describes a method for assessing clot formation in whole blood using rotation thromboelastography (ROTEM). The assay was performed as described in Example 8. The analytical set-up was as follows: 300 μL of pre-warmed (37° C.) CTI treated citrated whole blood was added to a peptide sample (10, 100, 1000 nM final assay concentration) or a control, followed by addition of a 1:15 dilution of TF PRP reagent containing recombinant human tissue factor (rTF, 3 pM) (TS40, Thrombinoscope BV, Maastricht, The Netherlands). In certain experiments, exogenous full length TFPI (flTFPI) at final concentrations of 2 or 10 nM was added to simulate flTFPI plasma levels of up to 50-fold over normal. Coagulation was initiated by the addition of 20 μL 200 mM CaCl2 (star-TEM®, Pentapharm, Munich, Germany) and recordings were allowed to proceed for at least 120 min. The final concentration of rTF in the assay was 44 fM. The thromboelastographic parameters of clotting time (CT), clot formation time (CFT) and maximum clot firmness (MCF) were recorded in accordance with the manufacturer's instructions. CT is defined as the time from the start of measurement to the start of clot formation. CFT is defined as the time from the start of clot formation until an amplitude of 20 mm is reached. MCF is the maximum difference in amplitude between the two traces during the assay.
# [4] = 24 h
# fl-TFPI / ASGPR = biological target: T2, fl-TFPI / ASGPR (Homo sapiens, UniProt P10646); test: BIAcore: fl-TFPI binding to ASGPR in presence of peptide; conditions: 1 μM peptide
# T2 sequence (P10646 29-304): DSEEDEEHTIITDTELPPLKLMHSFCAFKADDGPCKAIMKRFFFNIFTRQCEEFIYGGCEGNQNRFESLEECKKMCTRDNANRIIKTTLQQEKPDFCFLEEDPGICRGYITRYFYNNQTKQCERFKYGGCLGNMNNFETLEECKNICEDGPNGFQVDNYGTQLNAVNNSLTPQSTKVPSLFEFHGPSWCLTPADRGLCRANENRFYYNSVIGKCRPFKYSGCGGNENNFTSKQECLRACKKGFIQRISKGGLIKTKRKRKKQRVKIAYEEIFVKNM
# FIX knock-out mice = test: Tail-tip bleed model in FIX knock-out mice; type: in vivo, mouse; conditions: 1 mg/kg JBT2329 alone
# Method: JBT2329 also was tested in a FIX knock-out tail-tip bleed mouse model, which is a clinically-relevant model for hemophilia B human patients. The methodology was substantially similar to that described above with respect to the FVIII knock-out model. Instead of ADVATE, a recombinant FIX (rFIX) served as a reference. Median total blood loss in buffer-treated animals was 935 mg. Median total blood loss in animals treated with a murine anti-TFPI antibody (maTFPI) was 774 mg. Median total blood loss was reduced further when the animals received combined treatment of maTFPI and rFIX.
# FVIII knock-out mice = conditions: 1 mg/kg without ADVATE
# [5] = mouse, 24 h
# C57Bl/6NCrl mice = test: Nail clip bleeding study in mice; type: in vivo, mouse
# fl-TFPI / LRP = biological target: T3, fl-TFPI / LRP (Homo sapiens, UniProt P10646); test: BIAcore: fl-TFPI binding to LRP in presence of peptide; conditions: 1 μM peptide, 10 nM fl-TFPI
# T3 sequence (P10646 29-304): T2 sequence (P10646 29-304)
# T3 sequence (Q07954 852-1182 partner limits assumed): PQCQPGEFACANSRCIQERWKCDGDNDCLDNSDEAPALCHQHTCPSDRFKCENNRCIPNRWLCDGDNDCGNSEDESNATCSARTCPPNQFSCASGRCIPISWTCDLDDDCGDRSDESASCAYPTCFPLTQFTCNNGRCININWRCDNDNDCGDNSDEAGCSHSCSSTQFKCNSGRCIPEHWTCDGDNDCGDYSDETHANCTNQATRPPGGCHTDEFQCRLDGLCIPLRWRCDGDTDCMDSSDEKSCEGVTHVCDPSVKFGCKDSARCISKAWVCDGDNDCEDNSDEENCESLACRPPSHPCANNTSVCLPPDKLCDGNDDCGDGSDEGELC
# [6] = system: Tissue Factor Pathway Inhibitor (TFPI); test: IC50 ELISA | Mean IC50 [nM]
# [7] = 0.1 mg/kg i.v., first 30 minutes
# [8] = 0.1 mg/kg i.v., second 30 minute period
compound,measurement,setting,value
Ac-FQSKNNVFVFGYFERLRAKL-NH2 [JBT0297],EC50,TFPI,600 nM
same,Kd,human TFPI-1,29 nM
Ac-FQSKpNVH-Tle-DaYF[-Hcy-RL-Aib--Hcy-]KL-NH2 [JBT00002489],IC50,[1],> 500 nM
"Ac-FQSKpNVHVDGYFERL-Aib-AKLC(PEG)-NH2 [JBT2329] (FQSKPNVHVDGYFERLXAKLC; acetyl, D-Pro, Aib, Cys-PEG 41.5 kD, amide; MOD_RES (1)..(1): N-terminal acetylation; MOD_RES (5)..(5): D-Pro; MOD_RES (17)..(17): Xaa is 2-amino-isobutyric acid; MOD_RES (21)..(21): Cys-PEG; MOD_RES (21)..(21): C-terminal amidation)",protective effect on joint bleeding (summary bleeding score),FVIII-deficient mice,"significantly greater than the effect of 10 IU/kg ADVATE, but less than 100 IU/kg ADVATE"
same,HL_λ_z [h] (intravenous),"[2]; 1 mg/kg peptide content, intravenous",19.8 h
same,Bioavailability [%] (s.c.),"[2]; 1 mg/kg peptide content, s.c. AUC vs i.v. AUC",73.3%
same,coagulation parameters,[3],restored prolonged coagulation parameters in Hem A blood
same,"Human Plasma Stability, 24 hour (%)",[4],67.3%
same,fl-TFPI interaction with ASGPR in presence of peptide,fl-TFPI / ASGPR,diminished the ASGPR-fl-TFPI interaction
same,effect on median total blood loss,FIX knock-out mice,did not lead to a significant reduction in median total blood loss
same,effect on median total blood loss,FVIII knock-out mice,did not reduce median total blood loss over that observed in buffer-treated animals
same,percentage of initial amount of peptide remaining in plasma,[5],≥ 60%
same,reduction of total blood loss compared to vehicle,"C57Bl/6NCrl mice; 0.1 mg/kg i.v., 60 minutes",~60%
same,mean blood loss,"C57Bl/6NCrl mice; 0.1 mg/kg i.v., 60 minutes total",34.7 µL
same,mean blood loss,C57Bl/6NCrl mice; [7],16.0 µL
same,reduction of blood loss compared to vehicle,C57Bl/6NCrl mice; [7],about 50%
same,mean blood loss,C57Bl/6NCrl mice; [8],18.7 µL
same,reduction of blood loss compared to vehicle,C57Bl/6NCrl mice; [8],about 64%
same,mean blood loss,"C57Bl/6NCrl mice; 1.0 mg/kg i.v., entire 60 minutes",22.8 µL
same,mean blood loss,"C57Bl/6NCrl mice; 1.0 mg/kg i.v., first 30 minutes",12.2 µL
same,mean blood loss,"C57Bl/6NCrl mice; 1.0 mg/kg i.v., second 30 minute period",10.6 µL
same,reduction of blood loss compared to vehicle,"C57Bl/6NCrl mice; 10 mg/kg subcutaneous, 60 minutes",approximately 58%
same,fl-TFPI interaction with LRP in presence of peptide,fl-TFPI / LRP,slight decrease in fl-TFPI LRP interaction
"CC(=O)N[C@@H](Cc1ccccc1)C(=O)N[C@@H](CCC(N)=O)C(=O)N[C@@H](CO)C(=O)N[C@@H](CCCCN)C(=O)N1CCC[C@@H]1C(=O)N[C@@H](CC(N)=O)C(=O)N[C@H](C(=O)N[C@@H](Cc1c[nH]cn1)C(=O)N[C@H](C(=O)N[C@@H](CC(=O)O)C(=O)N[C@@H]1CSSCC[C@@H](C(=O)N[C@@H](CCCNC(=N)N)C(=O)N[C@@H](CC(C)C)C(=O)NC(C)(C)C(=O)N[C@@H](C)C(=O)N[C@@H](CCCCN)C(=O)N[C@@H](CC(C)C)C(N)=O)NC(=O)[C@H](Cc2ccccc2)NC(=O)[C@H](Cc2ccc(O)cc2)NC1=O)C(C)(C)C)C(C)C [JBT00002494, Ac-FQSKpNVH-Tle-D[cYF-Hcy-]RL-Aib-AKL-NH2] (Ac-FQSK[dP]NVH[Tle]D[dC]YF[hCys]RL[Aib]AKL-NH2; disulfide 11-14)",IC50,[6],2.84 nM
CC(=O)N[C@@H](Cc1ccccc1)C(=O)N[C@@H](CCC(N)=O)C(=O)N[C@@H](CO)C(=O)N[C@@H](CCCCN)C(=O)NCC(=O)N[C@@H](CC(N)=O)C(=O)N[C@H](C(=O)N[C@@H](Cc1ccccc1)C(=O)N[C@H](C(=O)N[C@@H](CC(=O)O)C(=O)NCC(=O)N[C@@H](Cc1ccc(O)cc1)C(=O)N[C@@H](Cc1ccccc1)C(=O)N[C@@H](CCC(=O)O)C(=O)N[C@@H](CCCNC(=N)N)C(=O)N[C@@H](CC(C)C)C(=O)NC(C)(C)C(=O)N[C@@H](C)C(=O)N[C@@H](CCCCN)C(=O)N[C@@H](CC(C)C)C(N)=O)C(C)C)C(C)C [JBT0740],plasma concentration after intravenous administration,"[2]; 10 mg/kg i.v., FIG. 31",rapidly cleared from the plasma
same,solubility,physchem,920 µg/mL
